The test system of this assay is schizophrenia. Here is the method:
At the initiation of hydrogen gas inhalation, a drug therapy with Abilify (intramuscular injection, 400 mg/month, once) and Lexotan tablets (oral administration, 6 mg/day, 3 times per day) was carried out.
Conditions of hydrogen gas inhalation were as follows:
For 40 days after initiation of inhalation: once per day, 70 mL/minute;
The subsequent 1 month: 2 hours per day, 70 mL/minute, hydrogen gas concentration: 3.0 to 4.0%;
The subsequent 4 months: 2 hours per day, 140 mL/minute, hydrogen gas concentration: 6.0 to 7.0%;
The subsequent 4 months: 6 hours per day, 280 mL/minute, hydrogen gas concentration: 6.0 to 7.0% (two hydrogen inhalers were used).
Thereafter, the patient was allowed to inhale hydrogen gas (6.0 to 7.0%, 280 mL/minute) for 6 hours/day, continuously for 9 months.

Where [1] appears, read: about 10 months after initiation of hydrogen inhalation.

Regarding `[HH]` [hydrogen gas], the “time for which injection of a medicine (once a month) was continued after initiation of hydrogen inhalation, thereafter stopped” value (Abilify intramuscular injection, 400 mg/month) was 8 months. Further, for the setting “Lexotan tablets, oral, 6 mg/day, hydrogen once per day, 70 mL/minute”, the “time after initiation of hydrogen inhalation at which administration of the oral medicine was terminated” value is on record as “Ten”. Also, under setting [1], the “disease-state in the period during which hydrogen inhalation was continued” value was “stably maintained” and the “phase of the disease” value was “recovery phase”. The “time after initiation of inhalation when use of the sleeping pill was stopped” value (brotizolam tablet, 0.25 mg/day) is “About 6 months”. Also, for the setting “brotizolam tablet, 0.25 mg/day, every day at initiation”, the “time after initiation of inhalation when the patient started to fall asleep without taking the sleeping pill” value is “about 2 months”. Moreover, under “examination in January of 2019”, the “value of the patient in the examination” value is “the same as in a healthy person”. Further, the “disease state according to medical examination during an office visit” value (further 9 months of hydrogen gas 6.0 to 7.0%, 280 mL/minute, 6 hours/day) is listed as “stable”. In addition, the “recurrence after inhalation of hydrogen gas was stopped” value (inhalation stopped in March of 2019) is on record as “no recurrence occurred”. The “consecutive symptom, hallucination” value (patient, schizophrenia onset 13 years ago, on Abilify and Lexotan, after initiation of hydrogen inhalation, 3.0 to 6.0%) is recorded as “disappeared”.
